The supplement of paper PMC11208160

Experiment: recombinant barcode read abundance after kanamycin selection (control-corrected) (log10(CPM+1)); higher = more efficient recombination; sequences stand for … in AGTGCAGAGAAAATCGGCCAGTTTTCTCTGCCTGCAGTCCGCATGCCGT…AGATTTATGCAGCGGACTGCCTTTCTCCCAAAGTGATAAACCGGACAGTATCATGGACCGGTTTTCCCGGTAATCCGTATTTGCAAGGTTGGTTTCACT; site = the 11-nt target
Summary of the method: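 In a pooled screen in E. coli, targets were paired with target-binding loops of the IS621 bridge RNA. Each oligo carried a promoter, a target, a barcode and the first 104 bridge RNA bases driven by J23119, and was Gibson-cloned into a vector holding the remaining 73 bp and a T7-inducible recombinase before co-electroporation with a donor plasmid. Duplicate platings went onto chloramphenicol/ampicillin LB agar as the control or onto chloramphenicol/ampicillin/kanamycin with 0.1 mM IPTG. Recombination efficiency is the averaged, control-corrected count per million of barcodes at recombinant junctions, given as log10(CPM+1).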
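Note: IS621 recombinase and bridge RNA in Escherichia coli cells.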

Sequence	recombinant barcode read abundance (log10)
CCAGTCACTTGGGTTCTAACCTGTTGCCT (site CCAGTAACTAG)	0.377
CCAGTCACTTGGGTTCTAACCTGTTGCCT (site CCAGTCACTAG)	1.88
CCAGTCACTTGGGTTCTAACCTGTTGCCT (site CCAGTGACTAG)	0.176
CCAGTCACTTGGGTTCTAACCTGTTGCCT (site CCAGTTACTAG)	0.19
CCAGTGACTTGGGTTCTAACCTGTTGCCT (site CCAGTAACTAG)	0.931
CCAGTGACTTGGGTTCTAACCTGTTGCCT (site CCAGTCACTAG)	0.299
CCAGTGACTTGGGTTCTAACCTGTTGCCT (site CCAGTGACTAG)	1.38
CCAGTGACTTGGGTTCTAACCTGTTGCCT (site CCAGTTACTAG)	0.254
CCATGGACTTGGGTTCTAACCTGTTGCCT (site CCAAGGACTAG)	0.202
CCATGGACTTGGGTTCTAACCTGTTGCCT (site CCACGGACTAG)	0.516
CCATGGACTTGGGTTCTAACCTGTTGCCT (site CCAGGGACTAG)	0.0382
CCATGGACTTGGGTTCTAACCTGTTGCCT (site CCATGGACTAG)	0.252
CCGAAGACTTGGGTTCTAACCTGTTGCCT (site CCGAAGACTAG)	0.112
CCGAAGACTTGGGTTCTAACCTGTTGCCT (site TCGAAGACTTG)	0.492
CCGACTCCTTGGGTTCTAACCTGTTGCCT (site CCGAATCCTAG)	0.0273
CCGACTCCTTGGGTTCTAACCTGTTGCCT (site CCGACTCCTAG)	0.13
CCGACTCCTTGGGTTCTAACCTGTTGCCT (site CCGAGTCCTAG)	0
CCGACTCCTTGGGTTCTAACCTGTTGCCT (site CCGATTCCTAG)	0.102

Sequence	recombinant barcode read abundance (log10)
CCGATTCCTTGGGTTCTAACCTGTTGCCT (site CCGAATCCTAG)	0.153
CCGATTCCTTGGGTTCTAACCTGTTGCCT (site CCGACTCCTAG)	0.171
CCGATTCCTTGGGTTCTAACCTGTTGCCT (site CCGAGTCCTAG)	0.0319
CCGATTCCTTGGGTTCTAACCTGTTGCCT (site CCGATTCCTAG)	0.217
CCGCAGCCTTGGGTTCTAACCTGTTGCCT (site CCGAAGCCTAG)	0.0264
CCGCAGCCTTGGGTTCTAACCTGTTGCCT (site CCGCAGCCTAG)	1.59
CCGCAGCCTTGGGTTCTAACCTGTTGCCT (site CCGGAGCCTAG)	0.177
CCGCAGCCTTGGGTTCTAACCTGTTGCCT (site CCGTAGCCTAG)	0.0447
CCGCCAGCTTGGGTTCTAACCTGTTGCCT (site CCGCCAGCTAG)	0.171
CCGCCAGCTTGGGTTCTAACCTGTTGCCT (site CCGCCCGCTAG)	0.0231
CCGCCAGCTTGGGTTCTAACCTGTTGCCT (site CCGCCGGCTAG)	0.0999
CCGCCAGCTTGGGTTCTAACCTGTTGCCT (site CCGCCTGCTAG)	0.186
CCGCCCGCTTGGGTTCTAACCTGTTGCCT (site CCGCCAGCTAG)	0.00972
CCGCCCGCTTGGGTTCTAACCTGTTGCCT (site CCGCCCGCTAG)	0.473
CCGCCCGCTTGGGTTCTAACCTGTTGCCT (site CCGCCGGCTAG)	0.083
CCGCCCGCTTGGGTTCTAACCTGTTGCCT (site CCGCCTGCTAG)	0.0828
CCGCCCTCTTGGGTTCTAACCTGTTGCCT (site CAGCCCTCTAG)	0.0642
CCGCCCTCTTGGGTTCTAACCTGTTGCCT (site CCGCCCTCTAG)	1.04
